Test results published in ChEMBL document CHEMBL4177734, “Cytotoxic quinazoline alkaloids from the seeds of Peganum harmala” (Bioorg Med Chem Lett, 2018).

Columns and labels:
Type in all cases: functional, cell-based
PC-3 = assay: Cytotoxicity against human PC3 cells assessed as reduction in cell viability by MTT assay
SGC-7901 = assay: Cytotoxicity against human SGC7901 cells assessed as reduction in cell viability by MTT assay
HL-60 = assay: Cytotoxicity against human HL60 cells assessed as reduction in cell viability by trypan blue method
[1] = Cytotoxicity against mouse Sp2/0-Ag14 cells
[2] = Cytotoxicity against Med-merk carcinoma cells (unknown origin)
[3] = Homo sapiens, PC-3, read-out: IC50
[4] = Homo sapiens, HL-60, read-out: IC50

Compound	IC50 (PC-3; [3]) [µM]	IC50 (SGC-7901)	IC50 (HL-60; hl-60)	IC50 (PC-3; pc-3)	IC50 (HL-60; [4]) [µM]	IC50 [1] [µM]	IC50 [2] [µM]
O[C@@H]1CCN2Cc3ccccc3N=C12	15.4	Not Active	Not Active	–	–	–	–
O=c1c2ccccc2nc2n1CC[C@@H]2O	–	Not Active	–	Not Active	67.8	–	–
COC(=O)CCn1cnc2ccccc2c1=O	–	Not Active	Not Active	Not Active	–	–	–
O=c1c2cc(O)ccc2nc2n1CC[C@H]2O	–	Not Active	Not Active	Not Active	–	–	–
O=c1c2cc(O)ccc2nc2n1CC[C@@H]2O	–	Not Active	Not Active	Not Active	–	–	–
O=c1c2ccccc2nc2n1CC[C@@H]2O[C@@H]1O[C@H](CO[C@@H]2O[C@H](CO)[C@@H](O)[C@H](O)[C@H]2O)[C@@H](O)[C@H](O)[C@H]1O	–	Not Active	Not Active	Not Active	–	–	–
O=c1c2ccccc2nc2n1CC[C@@H]2O[C@@H]1O[C@H](CO)[C@@H](O)[C@H](O)[C@H]1O	–	Not Active	Not Active	Not Active	–	–	–
Nc1ccccc1CN1CC[C@@H](O[C@@H]2O[C@H](CO[C@@H]3O[C@H](CO)[C@@H](O)[C@H](O)[C@H]3O)[C@@H](O)[C@H](O)[C@H]2O)C1=O	–	Not Active	Not Active	Not Active	–	–	–
O=c1[nH]c(CCCO)nc2ccccc12	–	Not Active	Not Active	Not Active	–	–	–
O=c1c2ccccc2nc2n1CC[C@H]2O[C@@H]1O[C@H](CO[C@@H]2O[C@H](CO)[C@@H](O)[C@H](O)[C@H]2O)[C@@H](O)[C@H](O)[C@H]1O	–	Not Active	Not Active	Not Active	–	–	–
Nc1ccccc1CN1CC[C@H](O[C@@H]2O[C@H](CO[C@@H]3O[C@H](CO)[C@@H](O)[C@H](O)[C@H]3O)[C@@H](O)[C@H](O)[C@H]2O)C1=O	–	Not Active	–	Not Active	42.8	–	–
Nc1ccccc1CN1CC[C@@H](O)C1=O	–	Not Active	–	Not Active	42.3	–	–
Nc1ccccc1CN1CC[C@H](O)C1=O	–	Not Active	–	Not Active	42.3	–	–
O=c1c2ccccc2nc2n1CC[C@H]2O	–	Not Active	–	Not Active	67.8	–	–
O=c1c2ccccc2nc2n1CCC2O (racemic)	–	–	–	–	–	19.2	25.3
O=c1c2ccccc2nc2n1CCC2 [DEOXYVASICINONE]	–	Not Active	Not Active	Not Active	–	–	–
O=c1[nH]cnc2ccccc12 [QUINAZOLINONE]	–	Not Active	Not Active	Not Active	–	–	–
O[C@H]1CCN2Cc3ccccc3N=C12 [VASICINE]	15.4	Not Active	Not Active	–	–	–	–
